Common to all, as to assay type: cell-based
One test deals with Molt-4 cells. The test is described as follows: Thiazolyl blue cell proliferation assay in Molt-4 cells. The note with it: Homo sapiens, Molt-4 acute lymphocytic leukemia cells, 72 hours, read-out: IC50 (nM) for inhibiting the proliferation of Molt-4 cells. From the text:
(§1) The cell lines RS4;11 (human acute lymphocytic leukemia cells), Molt-4 cells (human acute lymphocytic leukemia cells), MV4;11 (human myeloid monocytic leukemia cells), and Light II cells were commercially available or purchased from ATCC (American Type Culture Collection) and routinely cultured according to instructions.
3) Study on the proliferation inhibition effects induced by the compounds of the present disclosure designed based on ABT199/263 against BCL-XL-dependent Molt-4 cells:
(§2) The specific steps were as follows: Molt-4 cells were seeded at a density of 2×10^4 cells/well in 180 μL of serum-containing RPMI 1640 culture medium. DT2216 and the compounds of the present disclosure were added to the cell suspension at corresponding concentration gradients. DT2216 and DMSO were used as positive and vehicle control, respectively. The positive control and negative control were treated with the same treatment method as the compounds of the present disclosure. After treating the cells with the compounds of the present disclosure for 72 hours, thiazole blue solution (5 mg/mL) was added at 20 μL/well to the cell suspension, followed by incubation for 3 hours at 37° C. in an incubator with 5% CO2. Then, triple solution (0.1 g/mL SDS, 5% isopropyl alcohol, 10 mM hydrochloric acid) was added, followed by incubation for 4-6 hours at 37° C. in an incubator with 5% CO2. After confirming that all the crystal violets were dissolved under inverted biological microscopy, the absorbance was measured at 490 nm using an Epoch microplate reader (Biotek Corporation). The growth inhibition of the compounds of the present disclosure on the cells was plotted by GraphPad Prism 8 software, and the IC50 values of the compounds of the present disclosure were calculated therefrom. The experiment had 3 replicates per group and was repeated at least three times.

Test [1] relates to Hedgehog (Hh) signaling pathway. The test is described as follows: Dual-luciferase reporter assay of Hedgehog activity in Light II cells. The note with it: SAG stimulation, 36 h, dual-luciferase assay reporter kit, read-out: IC50 (nM) in Light II cells (inhibiting Hedgehog activity). On the procedure: Determination of the IC50 Values of Compounds Inhibiting Hedgehog Activity—Dual-Luciferase Reporter Assay:
Light II cells were NIH3T3 cell lines that stably express the Gli-luciferase and TK-renilla reporters. They were cultured with DMEM medium containing 10% (v/v) fetal bovine serum (FBS), 0.4 mg/ml G418, 0.15 mg/ml bleomycin (Zeocin), and penicillin/streptomycin at 37° C. in an incubator with 5% CO2. Light II cells in the logarithmic growth phase were seeded at a density of 2.5×10^4 cells/well in a 96-well plate. After 24h incubation, the cells were subjected to treatment with SAG with or without different concentrations of the compounds of the present disclosure for 36 h. After that, the Hedgehog activity was measured using the dual fluorescence reporter kit according to its instructions. The experiment had 3 replicates per group and was repeated at least three times.
A general note: Reporter assays use an easily measured gene product as a stand-in for the process of interest.

Another test concerns MV4;11 cells. Briefly: Thiazolyl blue cell proliferation assay in MV4;11 cells. The note with it: Homo sapiens, MV4;11 myeloid monocytic leukemia cells, 48 hours, read-out: IC50 (nM) for inhibiting the proliferation of MV4;11 cells.
Source text: as §1
2) Study on the proliferation inhibition effects induced by the compounds of the present disclosure designed based on ABT199/263 against BCL-XL-dependent MV4;11 cells:
as §2, with “MV4;11” for “Molt-4”, “90” for “180”, “IMDM” for “RPMI 1640”, “48” for “72”, “10 µL/well” for “20 μL/well”

The subject of a further test is RS4;11 cells. The test is described as follows: Thiazolyl blue cell proliferation assay in RS4;11 cells. The note with it: Homo sapiens, RS4;11 acute lymphoblastic leukemia cells, 48 hours, read-out: IC50 (nM) for inhibiting the proliferation of RS4;11 cells.
Source text: as §1
1) Study on the proliferation inhibition effects induced by the compounds of the present disclosure designed based on ABT199/263 against BCL-XL-dependent RS4;11 cells:
as §2, with “RS4;11” for “Molt-4”, “3×10^4” for “2×10^4”, “90” for “180”, “RPMI-1640” for “RPMI 1640”, “48” for “72”, “10” for “20”
We conducted dose-dependent experiments on the designed and synthesized compounds of the present disclosure in RS4;11 cells, which are highly sensitive to BCL-XL inhibitors. The cells were treated with 7 different concentrations (starting at the highest concentration of 1000 nM or 100 nM; 10-fold serial dilutions) of the compounds for 48 hours, and then tested using the thiazolyl blue cell proliferation assay.

Consider `C[C@@H]1CN([C@H]2CC[C@H](CNc3ccc(S(=O)(=O)NC(=O)c4ccc(N5CCN(CC6=C(c7ccc(Cl)cc7)CC(C)(C)CC6)CC5)cc4Oc4cnc5[nH]ccc5c4)cc3[N+](=O)[O-])CC2)CCN1Cc1ccc2c(c1)CN(C1CCC(=O)NC1=O)C2=O` (stereo partly drawn) [BCL-03168, 2-((1H-pyrrolo[2,3-b]pyridin-5-yl)oxy)-4-(4-((4′-chloro-5,5-dimethyl-3,4,5,6-tetrahydro-[1,1′-biphenyl]-2-yl)methyl)piperazin-1-yl)-N-((4-((((trans)-4-((3R)-4-((2-(2,6-dioxopiperidin-3-yl)-1-oxoisoindolin-5-yl)methyl)-3-methylpiperazin-1-yl)cyclohexyl)methyl)amino)-3-nitrophenyl)sulfonyl)benzamide], for which the IC50 is under 10 nM with Molt-4 cells, under 10 nM in test [1], under 20 nM with MV4;11 cells and under 20 nM with RS4;11 cells.

As to `C[C@H]1CN([C@H]2CC[C@@H](CNc3ccc(S(=O)(=O)NC(=O)c4ccc(N5CCN(CC6=C(c7ccc(Cl)cc7)CC(C)(C)CC6)CC5)cc4Oc4cnc5[nH]ccc5c4)cc3[N+](=O)[O-])CC2)CCN1Cc1cc(Br)c2c(c1)C(=O)N(C1CCC(=O)NC1=O)C2` (stereo partly drawn) [BCL-03169, 2-((1H-pyrrolo[2,3-b]pyridin-5-yl)oxy)-N-((4-((((cis)-4-((3S)-4-((7-bromo-2-(2,6-dioxopiperidin-3-yl)-3-oxoisoindolin-5-yl)methyl)-3-methylpiperazin-1-yl)cyclohexyl)methyl)amino)-3-nitrophenyl)sulfonyl)-4-(4-((4′-chloro-5,5-dimethyl-3,4,5,6-tetrahydro-[1,1′-biphenyl]-2-yl)methyl)piperazin-1-yl)benzamide], the IC50 in the test with Molt-4 cells is under 10 nM; in test [1] it was under 10 nM; in the test with MV4;11 cells, under 20 nM; in the test on RS4;11 cells it was under 20 nM.

For `CC1(C)CCC(c2ccc(Cl)cc2)=C(CN2CCN(c3ccc(C(=O)NS(=O)(=O)c4ccc(N[C@H](CCN5CCN(Cc6ccc7c(c6)CN(C6CCC(=O)NC6=O)C7=O)CC5)CSc5ccccc5)c(S(=O)(=O)C(F)(F)F)c4)cc3)CC2)C1` (stereo partly drawn) [BCL-03177, 4-(4-((4′-chloro-4,4-dimethyl-3,4,5,6-tetrahydro-[1,1′-biphenyl]-2-yl)methyl)piperazin-1-yl)-N-((4-(((2R)-4-(4-((2-(2,6-dioxopiperidin-3-yl)-1-oxoisoindolin-5-yl)methyl)piperazin-1-yl)-1-(phenylthio)butan-2-yl)amino)-3-((trifluoromethyl)sulfonyl)phenyl)sulfonyl)benzamide], the IC50 was under 10 nM in the test with Molt-4 cells, under 10 nM in test [1], under 20 nM in the test on MV4;11 cells and under 20 nM in the test with RS4;11 cells.

As for `CC1(C)CCC(c2ccc(Cl)cc2)=C(CN2CCN(c3ccc(C(=O)NS(=O)(=O)c4ccc(N[C@H](CCN5CCN(Cc6ccc7c(c6)C(=O)N(C6CCC(=O)NC6=O)C7=O)CC5)CSc5ccccc5)c(S(=O)(=O)C(F)(F)F)c4)cc3)CC2)C1` (stereo partly drawn) [BCL-03189, 4-(4-((4′-chloro-4,4-dimethyl-3,4,5,6-tetrahydro-[1,1′-biphenyl]-2-yl)methyl)piperazin-1-yl)-N-((4-(((2R)-4-(4-((2-(2,6-dioxopiperidin-3-yl)-1,3-dioxoisoindolin-5-yl)methyl)piperazin-1-yl)-1-(phenylthio)butan-2-yl)amino)-3-((trifluoromethyl)sulfonyl)phenyl)sulfonyl)benzamide], the IC50 in the test on Molt-4 cells was under 10 nM; in test [1], under 10 nM; in the test on MV4;11 cells, under 20 nM; with RS4;11 cells, under 20 nM.
